From patent US12637499B2, “Adrenomedullin analog, method for producing the same, and pharmaceutical use thereof” (priority 2020, dated 2026)
Where two headings read alike, the source gives them in different places. Where a SMILES comes first, the peptide text is derived from it. Bridges are numbered along the chain shown (N, C = ends). Where no end group is shown, it is not given here.

How the values were obtained:
[1] = in vitro
Experimental: After the lapse of a predetermined time, a 30-μl portion was taken out of the reaction solution, transferred into 170 μl of 0.1% aqueous solution of trifluoroacetic acid (TFA), and stored at −80° C. until analysis.
Quantitative analysis was performed for AM contained in the thus-obtained samples of a reaction mixture with serum or plasma by using specific fluoroimmunoassay (Tosoh Corporation) with two antibodies differing in their recognition sites. […] In the figure, the abscissa represents reaction time (min), and the ordinate represents concentration of AM (UM).
In the figure, the abscissa represents reaction time (min), and the ordinate represents concentration of AM or an AM analog (μM).
In the figure, the abscissa represents the type of AM or an AM analog, and the ordinate represents residual rates of AM or an AM analog (%).

[2] = in vivo
Experimental: Seven-week-old male Wistar rats were prepared, and grown with normal feeds. To determine plasma AM concentrations, 50 nmol/kg of AM or an AM analog was subcutaneously administered. A peripheral blood sample was collected from the tail vein into a Kantan tube® (containing heparin Na, Eiken Chemical Co., Ltd., Tochigi, Japan) at predetermined times (0, 15, 30, 60, and 120 minutes after administration). The tube was centrifuged at 2,000×g. Plasma was collected from the tube, and transferred into a test tube (containing 21 μg of aprotinin and 0.3 mg of EDTA-2Na) and stored. […] In the figure, the abscissa represents elapsed time after subcutaneous administration (hr), and the ordinate represents concentration in plasma of AM or an AM analog (pM). In addition, maximum concentrations in blood (Cmax) of AM or the AM analogs in rat plasma after subcutaneous administration were calculated.

[3] = 50 nmol/kg subcutaneous, Experiment VI
Experimental: (§1) Eight-week-old male Wistar rats were purchased from Charles River Laboratories Japan, Inc. The rats were grown with normal feeds in the absence of specific pathogens under cycles of a 12-hour light period and a 12-hour dark period. […] To determine plasma AM concentrations, 50 nmol/kg of AM or an AM analog was subcutaneously administered. A peripheral blood sample was collected from the tail vein into a test tube (containing 21 μg of aprotinin and 0.3 mg of EDTA-2Na) at predetermined times (0, 15, 30, 60, and 120 minutes after administration). The test tube was centrifuged at 1,700×g to afford plasma.

[4] = in vivo; settings: male, Wistar, rat, sc, 50 nmol/kg; for AUC: in vivo
Experimental: as §1

[5] = in vitro; settings: Experiment VIII; 10^−7 M, 37° C.; 1 hour after the beginning of reaction
Experimental: The stabilities of the AM analog peptides in serum were evaluated with the same procedure as in Experiment I except the following procedure. […] A reaction mixture containing 4 μL of phosphate buffer, 20 μL of human serum (Sigma-Aldrich Co. LLC, USA), and 14 μL of water was prepared. To the reaction mixture, 2 μL of AM or an AM analog peptide (2×10^−6 M, final concentration: 10^−7 M) was added, and reaction was initiated at 37° C. The reaction was terminated by addition of 160 μL of ELISA buffer to the reaction mixture 0, 1, or 4 hours after the beginning of reaction. […] In the figure, the abscissa represents reaction time (hr), and the ordinate represents concentration in serum of AM or an AM analog (%) represented as relative values to concentration of AM or an AM analog at the beginning of reaction (i.e., 0 hours after the beginning of reaction).

[6] = target: AM type 1 receptor (AMI receptor) (UniProt Q16602 23-461; O60895 43-175, limits assumed); assay: cell-based or functional assay
Chain of AM type 1 receptor (AMI receptor) (Q16602 23-461 limits assumed, chain 1 of 2): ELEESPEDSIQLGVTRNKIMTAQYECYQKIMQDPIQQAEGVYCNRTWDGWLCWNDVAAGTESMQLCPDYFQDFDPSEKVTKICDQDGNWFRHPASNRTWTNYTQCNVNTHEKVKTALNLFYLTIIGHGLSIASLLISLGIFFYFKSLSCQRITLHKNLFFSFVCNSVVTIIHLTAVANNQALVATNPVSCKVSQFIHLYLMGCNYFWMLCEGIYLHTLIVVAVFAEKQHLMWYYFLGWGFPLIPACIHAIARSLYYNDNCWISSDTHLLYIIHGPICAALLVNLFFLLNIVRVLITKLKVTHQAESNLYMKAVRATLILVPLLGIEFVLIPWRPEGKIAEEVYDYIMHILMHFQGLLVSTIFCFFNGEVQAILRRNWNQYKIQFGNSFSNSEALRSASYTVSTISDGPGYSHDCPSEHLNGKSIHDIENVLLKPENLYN
Chain of AM type 1 receptor (AMI receptor) (O60895 43-175 limits assumed, chain 2 of 2): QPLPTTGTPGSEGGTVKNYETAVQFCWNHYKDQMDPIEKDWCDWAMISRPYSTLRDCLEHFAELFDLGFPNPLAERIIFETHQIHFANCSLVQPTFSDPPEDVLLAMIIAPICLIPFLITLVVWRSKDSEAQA

Molecule: CC[C@H](C)[C@H](NC(=O)[C@H](CCC(N)=O)NC(=O)[C@H](Cc1c[nH]cn1)NC(=O)[C@H](C)NC(=O)[C@H](CC(C)C)NC(=O)[C@H](CCCCN)NC(=O)[C@H](CCC(N)=O)NC(=O)[C@@H](NC(=O)[C@@H](NC(=O)[C@@H]1CSSC[C@H](NC(=O)CNC(=O)[C@H](Cc2ccccc2)NC(=O)[C@@H](N)CO)C(=O)N[C@@H](CCCNC(=N)N)C(=O)N[C@@H](Cc2ccccc2)C(=O)NCC(=O)N[C@@H]([C@@H](C)O)C(=O)N1)[C@@H](C)O)C(C)C)C(=O)N[C@@H](Cc1ccc(O)cc1)C(=O)N[C@@H](CCC(N)=O)C(=O)N[C@@H](Cc1ccccc1)C(=O)N[C@H](C(=O)N[C@@H](CC(=O)O)C(=O)N[C@@H](CCCCN)C(=O)N[C@@H](CC(=O)O)C(=O)N[C@@H](CCCCN)C(=O)N[C@@H](CC(=O)O)C(=O)N[C@@H](CC(N)=O)C(=O)N[C@H](C(=O)N[C@@H](C)C(=O)N1CCC[C@H]1C(=O)N[C@@H](C)C(=O)N[C@@H](CO)C(=O)N[C@@H](CCCCN)C(=O)N[C@H](C(=O)N[C@@H](CO)C(=O)N1CCC[C@H]1C(=O)N[C@@H](CCC(N)=O)C(=O)NCC(=O)N[C@@H](Cc1ccc(O)cc1)C(N)=O)[C@@H](C)CC)C(C)C)[C@@H](C)O [[Ala-44]hAM(13-52), SFGCRFGTCTVQKLAHQIYQFTDKDKDNVAPASKISPQGY-CONH2] (H-SFGCRFGTCTVQKLAHQIYQFTDKDKDNVAPASKISPQGY-NH2; disulfide 4-9; N-terminus assumed)
- change in amount with the lapse of reaction time in reaction mixture with serum ([1]; Experiment IV, up to 240 minutes): almost no decrease or only slight decrease in amount
- remaining at 4 h ([1]; serum, pH 7.1): 96.4%
- detection in rat plasma after subcutaneous administration ([2]; 50 nmol/kg subcutaneous, Experiment X): detected in rat plasma 15 minutes after administration
- Cmax ([2]; male, Wistar, rat, in vivo, sc, 50 nmol/kg): 0.777 nM
- detection in rat plasma after subcutaneous administration [3]: detected in rat plasma 15 minutes after administration
- Cmax relative to that of hAM(1-52) ([3]; rat): ≥ 100 times
- AUC [4]: 0.578 nM·h
- Cmax ([4]; plasma): 1.17 nM
- half-life ([4]; plasma): 82.4 min

Molecule: CC[C@H](C)[C@H](NC(=O)[C@H](CCC(N)=O)NC(=O)[C@H](Cc1c[nH]cn1)NC(=O)[C@H](C)NC(=O)[C@H](CC(C)C)NC(=O)[C@H](CCCCN)NC(=O)[C@H](CCC(N)=O)NC(=O)[C@@H](NC(=O)[C@@H](NC(=O)[C@@H]1CSSC[C@H](NC(=O)CNC(=O)[C@H](Cc2ccccc2)NC(=O)[C@@H](N)CO)C(=O)N[C@@H](CCCNC(=N)N)C(=O)N[C@@H](Cc2ccccc2)C(=O)NCC(=O)N[C@@H]([C@@H](C)O)C(=O)N1)[C@@H](C)O)C(C)C)C(=O)N[C@@H](Cc1ccc(O)cc1)C(=O)N[C@@H](CCC(N)=O)C(=O)N[C@@H](Cc1ccccc1)C(=O)N[C@H](C(=O)N[C@@H](CC(=O)O)C(=O)N[C@@H](CCCCN)C(=O)N[C@@H](CC(=O)O)C(=O)N[C@@H](CCCCN)C(=O)N[C@@H](CC(=O)O)C(=O)N[C@@H](CC(N)=O)C(=O)N[C@H](C(=O)N[C@@H](C)C(=O)N1CCC[C@H]1C(=O)N[C@@H](CCCNC(=N)N)C(=O)N[C@@H](CO)C(=O)N[C@@H](CCCCN)C(=O)N[C@H](C(=O)N[C@@H](CO)C(=O)N1CCC[C@H]1C(=O)N[C@@H](CCC(N)=O)C(=O)NCC(=O)N[C@@H](Cc1ccc(O)cc1)C(N)=O)[C@@H](C)CC)C(C)C)[C@@H](C)O [hAM(13-52), SFGCRFGTCTVQKLAHQIYQFTDKDKDNVAPRSKISPQGY-CONH2, reference compound]
- concentration of AM or AM analog in reaction mixture with serum ([1]; Experiment IV, 240 minutes after the beginning of reaction): below the detection limit
- residual rate in reaction mixture with serum ([1]; Experiment IV, 240 minutes vs 0 minutes after the beginning of reaction): 0.2%
- presence in reaction mixture with human serum [5]: substantially disappeared
- detection in rat plasma after subcutaneous administration [3]: hardly detected
- AUC [4]: 0.0832 nM·h
- Cmax ([4]; plasma): 0.165 nM

B1: [des-Arg-44]hAM(13-52) (peptide)
peptide: SFGCRFGTCTVQKLAHQIYQFTDKDKDNVAPSKISPQGY-NH2
modifications: disulfide 4-9; N-terminus assumed
SMILES: CC[C@H](C)[C@H](NC(=O)[C@H](CCC(N)=O)NC(=O)[C@H](Cc1c[nH]cn1)NC(=O)[C@H](C)NC(=O)[C@H](CC(C)C)NC(=O)[C@H](CCCCN)NC(=O)[C@H](CCC(N)=O)NC(=O)[C@@H](NC(=O)[C@@H](NC(=O)[C@@H]1CSSC[C@H](NC(=O)CNC(=O)[C@H](Cc2ccccc2)NC(=O)[C@@H](N)CO)C(=O)N[C@@H](CCCNC(=N)N)C(=O)N[C@@H](Cc2ccccc2)C(=O)NCC(=O)N[C@@H]([C@@H](C)O)C(=O)N1)[C@@H](C)O)C(C)C)C(=O)N[C@@H](Cc1ccc(O)cc1)C(=O)N[C@@H](CCC(N)=O)C(=O)N[C@@H](Cc1ccccc1)C(=O)N[C@H](C(=O)N[C@@H](CC(=O)O)C(=O)N[C@@H](CCCCN)C(=O)N[C@@H](CC(=O)O)C(=O)N[C@@H](CCCCN)C(=O)N[C@@H](CC(=O)O)C(=O)N[C@@H](CC(N)=O)C(=O)N[C@H](C(=O)N[C@@H](C)C(=O)N1CCC[C@H]1C(=O)N[C@@H](CO)C(=O)N[C@@H](CCCCN)C(=O)N[C@H](C(=O)N[C@@H](CO)C(=O)N1CCC[C@H]1C(=O)N[C@@H](CCC(N)=O)C(=O)NCC(=O)N[C@@H](Cc1ccc(O)cc1)C(N)=O)[C@@H](C)CC)C(C)C)[C@@H](C)O
- logarithmic values of 50%-effective concentration (pEC50) for intracellular cAMP concentration-increasing activity [6]: 8.71 pEC50

B2: [Gly-44]hAM(13-52) (peptide)
peptide: SFGCRFGTCTVQKLAHQIYQFTDKDKDNVAPGSKISPQGY-NH2
modifications: disulfide 4-9; N-terminus assumed
SMILES: CC[C@H](C)[C@H](NC(=O)[C@H](CCC(N)=O)NC(=O)[C@H](Cc1c[nH]cn1)NC(=O)[C@H](C)NC(=O)[C@H](CC(C)C)NC(=O)[C@H](CCCCN)NC(=O)[C@H](CCC(N)=O)NC(=O)[C@@H](NC(=O)[C@@H](NC(=O)[C@@H]1CSSC[C@H](NC(=O)CNC(=O)[C@H](Cc2ccccc2)NC(=O)[C@@H](N)CO)C(=O)N[C@@H](CCCNC(=N)N)C(=O)N[C@@H](Cc2ccccc2)C(=O)NCC(=O)N[C@@H]([C@@H](C)O)C(=O)N1)[C@@H](C)O)C(C)C)C(=O)N[C@@H](Cc1ccc(O)cc1)C(=O)N[C@@H](CCC(N)=O)C(=O)N[C@@H](Cc1ccccc1)C(=O)N[C@H](C(=O)N[C@@H](CC(=O)O)C(=O)N[C@@H](CCCCN)C(=O)N[C@@H](CC(=O)O)C(=O)N[C@@H](CCCCN)C(=O)N[C@@H](CC(=O)O)C(=O)N[C@@H](CC(N)=O)C(=O)N[C@H](C(=O)N[C@@H](C)C(=O)N1CCC[C@H]1C(=O)NCC(=O)N[C@@H](CO)C(=O)N[C@@H](CCCCN)C(=O)N[C@H](C(=O)N[C@@H](CO)C(=O)N1CCC[C@H]1C(=O)N[C@@H](CCC(N)=O)C(=O)NCC(=O)N[C@@H](Cc1ccc(O)cc1)C(N)=O)[C@@H](C)CC)C(C)C)[C@@H](C)O
- logarithmic values of 50%-effective concentration (pEC50) for intracellular cAMP concentration-increasing activity [6]: 7.96 pEC50
